# Source: ChEMBL document CHEMBL2413073, “Efficient construction of novel D-ring modified steroidal dienamides and their cytotoxic activities” (Eur J Med Chem, 2013)
# Assays:
# P388 = experiment: Cytotoxicity against mouse P388 cells; assay type: functional, cell-based
# HT-29 = experiment: Cytotoxicity against human HT-29 cells; assay type: functional, cell-based
# [1] = Cytotoxicity against human MEL28 cells; assay type: functional, cell-based; conditions: SK-MEL-28
# A549 = experiment: Cytotoxicity against human A549 cells; assay type: functional, cell-based
# MGC-803 [2] = experiment: Induction of apoptosis in human MGC803 cells assessed as early apoptotic cells at 4 uM after 24 hrs by AnnexinV/FITC-propidium iodide staining-based flow cytometry (reference value: 8.9%); assay type: functional
# MGC-803 [3] = experiment: Cell cycle arrest in human MGC803 cells assessed as accumulation at S phase at 4 uM after 24 hrs by propidium iodide staining-based flow cytometry (reference value: 26.67%); assay type: functional
# MGC-803 [4] = experiment: Cell cycle arrest in human MGC803 cells assessed as accumulation at G2/M phase at 8 uM after 24 hrs by propidium iodide staining-based flow cytometry (reference value: 20.41%); assay type: functional
# PC-3 = experiment: Cytotoxicity against human PC3 cells after 72 hrs by MTT assay; assay type: functional, cell-based; conditions: PC-3, 72 h
# MGC-803 [5] = experiment: Induction of apoptosis in human MGC803 cells assessed as late apoptotic cells at 4 uM after 24 hrs by AnnexinV/FITC-propidium iodide staining-based flow cytometry (reference value: 1.2%); assay type: functional
# MGC-803 [6] = experiment: Induction of apoptosis in human MGC803 cells assessed as necrotic cells at 8 uM after 24 hrs by AnnexinV/FITC-propidium iodide staining-based flow cytometry (reference value: 0.2%); assay type: functional
# MGC-803 [7] = experiment: Cell cycle arrest in human MGC803 cells assessed as accumulation at G0/G1 phase at 4 uM after 24 hrs by propidium iodide staining-based flow cytometry (reference value: 43.45%); assay type: functional
# MGC-803 [8] = experiment: Cell cycle arrest in human MGC803 cells assessed as accumulation at G2/M phase at 4 uM after 24 hrs by propidium iodide staining-based flow cytometry (reference value: 20.41%); assay type: functional
# MGC-803 [9] = experiment: Induction of apoptosis in human MGC803 cells assessed as early apoptotic cells at 2 uM after 24 hrs by AnnexinV/FITC-propidium iodide staining-based flow cytometry (reference value: 8.9%); assay type: functional
# MGC-803 [10] = experiment: Induction of apoptosis in human MGC803 cells assessed as late apoptotic cells at 2 uM after 24 hrs by AnnexinV/FITC-propidium iodide staining-based flow cytometry (reference value: 1.2%); assay type: functional
# MGC-803 [11] = experiment: Cell cycle arrest in human MGC803 cells assessed as accumulation at G0/G1 phase at 2 uM after 24 hrs by propidium iodide staining-based flow cytometry (reference value: 43.45%); assay type: functional
# MGC-803 [12] = experiment: Induction of apoptosis in human MGC803 cells assessed as late apoptotic cells at 8 uM after 24 hrs by AnnexinV/FITC-propidium iodide staining-based flow cytometry (reference value: 1.2%); assay type: functional
# MGC-803 [13] = experiment: Induction of apoptosis in human MGC803 cells assessed as viable cells at 4 uM after 24 hrs by AnnexinV/FITC-propidium iodide staining-based flow cytometry (reference value: 89.6%); assay type: functional; conditions: MGC-803, 24 h, read-out: Activity
# [14] = Cytotoxicity against human EC109 cells after 72 hrs by MTT assay; assay type: functional, cell-based; conditions: ECa-109, 72 h
# SMMC-7721 = experiment: Cytotoxicity against human SMMC7721 cells after 72 hrs by MTT assay; assay type: functional, cell-based; conditions: SMMC-7721, 72 h
# MGC-803 [15] = experiment: Cell cycle arrest in human MGC803 cells assessed as accumulation at S phase at 2 uM after 24 hrs by propidium iodide staining-based flow cytometry (reference value: 26.67%); assay type: functional
# MGC-803 [16] = experiment: Induction of apoptosis in human MGC803 cells assessed as necrotic cells at 4 uM after 24 hrs by AnnexinV/FITC-propidium iodide staining-based flow cytometry (reference value: 0.2%); assay type: functional
# MGC-803 [17] = experiment: Cell cycle arrest in human MGC803 cells assessed as accumulation at G0/G1 phase at 8 uM after 24 hrs by propidium iodide staining-based flow cytometry (reference value: 43.45%); assay type: functional
# MGC-803 [18] = experiment: Cell cycle arrest in human MGC803 cells assessed as accumulation at G2/M phase at 2 uM after 24 hrs by propidium iodide staining-based flow cytometry (reference value: 20.41%); assay type: functional
# MGC-803 [19] = experiment: Induction of apoptosis in human MGC803 cells assessed as early apoptotic cells at 8 uM after 24 hrs by AnnexinV/FITC-propidium iodide staining-based flow cytometry (reference value: 8.9%); assay type: functional
# MGC-803 [20] = experiment: Cytotoxicity against human MGC803 cells after 72 hrs by MTT assay; assay type: functional, cell-based; conditions: MGC-803, 72 h
# MGC-803 [21] = experiment: Induction of apoptosis in human MGC803 cells assessed as viable cells at 2 uM after 24 hrs by AnnexinV/FITC-propidium iodide staining-based flow cytometry (reference value: 89.6%); assay type: functional; conditions: MGC-803, 24 h, read-out: Activity
# MGC-803 [22] = experiment: Induction of apoptosis in human MGC803 cells assessed as viable cells at 8 uM after 24 hrs by AnnexinV/FITC-propidium iodide staining-based flow cytometry (reference value: 89.6%); assay type: functional; conditions: MGC-803, 24 h, read-out: Activity
# MCF7 = experiment: cells; conditions: Homo sapiens, MCF7, 72 h
# Description: Cytotoxicity against human MCF7 cells after 72 hrs by MTT assay
# MGC-803 [23] = experiment: Cell cycle arrest in human MGC803 cells assessed as accumulation at G2/M phase after 24 hrs by propidium iodide staining-based flow cytometry; assay type: functional
# MGC-803 [24] = experiment: Cell cycle arrest in human MGC803 cells assessed as accumulation at S phase at 8 uM after 24 hrs by propidium iodide staining-based flow cytometry (reference value: 26.67%); assay type: functional
# MGC-803 [25] = experiment: Induction of apoptosis in human MGC803 cells assessed as necrotic cells at 2 uM after 24 hrs by AnnexinV/FITC-propidium iodide staining-based flow cytometry (reference value: 0.2%); assay type: functional
smiles,measurement,setting,value
C=C1C[C@@H]2C/C=C/C(=O)C/C(C)=C\C=C\C(=O)O[C@H]([C@H](O)NC(=O)/C=C\C=C\C)C/C(C)=C/[C@H](C1)O2 [ZAMPANOLIDE],IC50,P388,1 ng/mL
same,IC50,HT-29,1 ng/mL
same,IC50,[1],1 ng/mL
same,IC50,A549,1 ng/mL
CC(=O)O[C@H]1CC[C@@]2(C)C(=CC[C@@H]3[C@@H]2CC[C@]2(C)C(=C(/C#N)C(N)=O)/C(=C/c4ccc(Cl)cc4)C[C@@H]32)C1,Activity,MGC-803 [2],35.9%
same,Activity,MGC-803 [3],19.94%
same,Activity,MGC-803 [4],56.91%
same,IC50,PC-3,11.5 µM
same,Activity,MGC-803 [5],9.4%
same,Activity,MGC-803 [6],0.1%
same,Activity,MGC-803 [7],28.84%
same,Activity,MGC-803 [8],49.43%
same,Activity,MGC-803 [9],18.7%
same,Activity,MGC-803 [10],4.4%
same,Activity,MGC-803 [11],48.61%
same,Activity,MGC-803 [12],17.1%
same,viability at 4 µM,MGC-803 [13],52.7%
same,IC50,[14],5.56 µM
same,IC50,SMMC-7721,3.9 µM
same,Activity,MGC-803 [15],15.68%
same,Activity,MGC-803 [16],2%
same,Activity,MGC-803 [17],21.6%
same,Activity,MGC-803 [18],33.68%
same,Activity,MGC-803 [19],80.9%
same,IC50,MGC-803 [20],1.54 µM
same,viability at 2 µM,MGC-803 [21],76.3%
same,viability at 8 µM,MGC-803 [22],1.9%
same,IC50,MCF7,3.85 µM
same,Activity,MGC-803 [23],Dose-dependent effect
same,Activity,MGC-803 [24],19.09%
same,Activity,MGC-803 [25],0.5%
